Data from patent publication US8575163B2, “Pyrrolopyridinylpyrimidin-2-ylamine derivatives” (Merck Patent GmbH, priority 2009, dated 2013).
Like-named read-outs stand apart in the source and are kept apart here.

Experiments:
PDK1 = target: T1, PDK1 (Homo sapiens, UniProt O15530); assay: Test for the inhibition of PDK1 (flashplate, 33P-ATP); assay type: biochemical; conditions: His6-PDK1 3.4 nM, 4 μM ATP, 30° C., 60 min
T1 construct: His6 (N)
T1 sequence (O15530 51-556 limits assumed): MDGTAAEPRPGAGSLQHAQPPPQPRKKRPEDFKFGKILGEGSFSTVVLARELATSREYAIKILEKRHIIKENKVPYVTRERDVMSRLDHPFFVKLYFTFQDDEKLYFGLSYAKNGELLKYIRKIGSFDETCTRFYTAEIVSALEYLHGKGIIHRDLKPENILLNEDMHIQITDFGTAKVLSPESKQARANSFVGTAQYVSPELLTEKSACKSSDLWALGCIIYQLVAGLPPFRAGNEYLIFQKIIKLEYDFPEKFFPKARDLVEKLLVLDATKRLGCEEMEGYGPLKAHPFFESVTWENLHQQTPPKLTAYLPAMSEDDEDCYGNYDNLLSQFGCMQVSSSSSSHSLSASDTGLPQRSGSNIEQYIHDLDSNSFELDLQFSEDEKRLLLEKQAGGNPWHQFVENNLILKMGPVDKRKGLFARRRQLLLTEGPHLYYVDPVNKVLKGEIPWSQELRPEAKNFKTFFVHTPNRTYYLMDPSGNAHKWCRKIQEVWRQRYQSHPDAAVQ
Outline: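 His6-PDK1(1-50) (3.4 nM) and a biotinylated peptide substrate (400 nM) were incubated 60 min at 30° C with 4 μM ATP containing ^33P-ATP and test compound. Incorporated radioactivity was counted after subtracting a 100 nM staurosporine blank and expressed as % of control; IC50 derived from these.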

[1] = system: PDK1 kinase activity (phospho-T308-PKB) in PC3 cells; assay: Cellular testing of PDK1 kinase inhibitors in PC3 cells (Luminex, phospho-T308-PKB); assay type: cell-based; conditions: 30 min incubation, serum-free, read-out: IC50 PC3 cells [P-PKB T308]
Protocol: Method for the Cellular Testing of PDK1 Kinase Inhibitors in PC3 Cells.
The cellular assay for the determination of the PDK1 kinase activity is carried out as a Luminex assay in the 96-well format. PC3 cells are shown at 20,000 cells per well in 100 μl of medium (45% of […]/45% of Ham's F12/10% of FCS) and incubated on the following day for 30 min with a serial dilution of the test substance (7 concentrations) under serum-free conditions. The cells are subsequently lysed using 90 μl of lysis buffer (20 mM tris/HCl pH 8.0, 150 mM NaCl, 1% of NP40, 10% of glycerol, 1% of phosphatase inhibitor I, 1% of phosphatase inhibitor II, 0.1% of protease inhibitor cocktail III, 0.01% of benzonase) per well, and the lysates are separated off from insoluble cell constituents by means of centrifugation through a 96-well filter plate (0.65 μm). The lysates are incubated overnight at 4° C. with shaking with Luminex beads to which an anti-total PKB antibody is coupled. The detection is carried out on the following day by addition of a phospho-T308-PKB antibody and a species-specific peroxidase-labelled secondary antibody. The detection of phospho-T308-PKB is carried out by measurement in a Luminex100 instrument by determination of 100 events per cavity in a measurement time of 60 sec. As pharmacological blank, the signals obtained from cells which have been treated with 10 μM staurosporin are subtracted from all other batches. The control value used for maximum phosphorylation of PKB on T308 are the signals from cells which have only been treated with the solvent (0.3% of DMSO). The values of the batches treated with test substance are calculated therefrom as percentage of control, and IC50 values are determined by means of RS1.

| IC50 (PDK1) [nM] | IC50 [1] [nM] | IC50 ([1]; Homo sapiens, PC-3, 0.5 h) [nM] | SMILES |
| --- | --- | --- | --- |
| 16 | 41 |  | Cn1cc(-c2cnc3[nH]cc(-c4cc(C(C)(O)c5ccccc5F)nc(N)n4)c3c2)cn1 (single isomer, unassigned) [A104, 1-{2-amino-6-[5-(1-methyl-1H-pyrazol-4-yl)-1H-pyrrolo[2,3-b]pyridin-3-yl]-pyrimidin-4-yl}-1-(2-fluorophenyl)ethanol] |
| 48 |  | 18 | CC[C@@](O)(c1ccc(F)cc1)c1cc(-c2c[nH]c3ncc(-c4cnn(C)c4)cc23)nc(N)n1 (single isomer, unassigned) [A121] |
| 71 |  | 18 | CC[C@](O)(c1ccc(F)cc1)c1cc(-c2c[nH]c3ncc(-c4cnn(C)c4)cc23)nc(N)n1 (single isomer, unassigned) [A122] |
| 78 |  | 250 | Cn1cc(-c2cnc3[nH]cc(-c4cc([C@@](O)(c5ccccc5)C(F)(F)F)nc(N)n4)c3c2)cn1 (single isomer, unassigned) [A123] |
| 170 |  | 48 | Cn1cc(-c2cnc3[nH]cc(-c4cc([C@](O)(c5ccccc5)C(F)(F)F)nc(N)n4)c3c2)cn1 (single isomer, unassigned) [A124] |
| 7.9 |  | 14 | CC[C@](O)(c1cc(-c2c[nH]c3ncc(-c4cnn(C)c4)cc23)nc(N)n1)c1cccc(F)c1F (single isomer, unassigned) [A125] |
| 66 |  | 2 | CC[C@@](O)(c1cc(-c2c[nH]c3ncc(-c4cnn(C)c4)cc23)nc(N)n1)c1cccc(F)c1F (single isomer, unassigned) [A126] |
| 28 |  | 11 | CC(C)[C@@](O)(c1ccccc1)c1cc(-c2c[nH]c3ncc(-c4cnn(C)c4)cc23)nc(N)n1 (single isomer, unassigned) [A127] |
| 260 |  | 470 | CC(C)[C@](O)(c1ccccc1)c1cc(-c2c[nH]c3ncc(-c4cnn(C)c4)cc23)nc(N)n1 (single isomer, unassigned) [A128] |
| 16 |  | 7 | CCC[C@@](O)(c1cc(-c2c[nH]c3ncc(-c4cnn(C)c4)cc23)nc(N)n1)c1ccccc1F (single isomer, unassigned) [A129] |
| 71 |  | 18 | CCC[C@](O)(c1cc(-c2c[nH]c3ncc(-c4cnn(C)c4)cc23)nc(N)n1)c1ccccc1F (single isomer, unassigned) [A130] |
| 3.8 |  | 11 | CC[C@](O)(c1cc(-c2c[nH]c3ncc(-c4cnn(C)c4)cc23)nc(N)n1)c1ccncc1F (single isomer, unassigned) [A131] |
| 32 |  | 140 | CC[C@@](O)(c1cc(-c2c[nH]c3ncc(-c4cnn(C)c4)cc23)nc(N)n1)c1ccncc1F (single isomer, unassigned) [A132] |
| 48 |  | 1900 | CCC[C@](O)(c1ccncc1)c1cc(-c2c[nH]c3ncc(-c4cnn(C)c4)cc23)nc(N)n1 (single isomer, unassigned) [A133] |
| 4.1 |  | 280 | CCC[C@@](O)(c1ccncc1)c1cc(-c2c[nH]c3ncc(-c4cnn(C)c4)cc23)nc(N)n1 (single isomer, unassigned) [A134] |
| 6.9 |  | 34 | CC[C@](O)(c1ccccc1)c1cc(-c2c[nH]c3ncc(-c4cnn(CC(=O)N5CCCCC5)c4)cc23)nc(N)n1 (single isomer, unassigned) [A135] |
| 210 |  | 870 | CC[C@@](O)(c1ccccc1)c1cc(-c2c[nH]c3ncc(-c4cnn(CC(=O)N5CCCCC5)c4)cc23)nc(N)n1 (single isomer, unassigned) [A136] |
| 28 |  | 14 | Cn1cc(-c2cnc3[nH]cc(-c4cc([C@@](C)(O)c5cccc(Cl)c5F)nc(N)n4)c3c2)cn1 (single isomer, unassigned) [A137] |
| 39 |  | 8900 | Cn1cc(-c2cnc3[nH]cc(-c4cc([C@](C)(O)c5cccc(Cl)c5F)nc(N)n4)c3c2)cn1 (single isomer, unassigned) [A138] |
| 210 |  | 7000 | COCO[C@](C)(c1ccncc1)c1cc(-c2c[nH]c3ncc(Br)cc23)nc(N)n1 (single isomer, unassigned) [A139] |
| 220 |  | 8900 | COCO[C@@](C)(c1ccncc1)c1cc(-c2c[nH]c3ncc(Br)cc23)nc(N)n1 (single isomer, unassigned) [A140] |
| 530 |  | 1200 | CC(O)(c1ccccc1)c1cc(-c2c[nH]c3ncc(-c4cnn(C5CCNCC5)c4)cc23)nc(N)n1 (stereo not drawn) [A13, 1-{2-amino-6-[5-(1-piperidin-4-yl-1H-pyrazol-4-yl)-1H-pyrrolo[2,3-b]pyridin-3-yl]pyrimidin-4-yl}-1-phenylethanol] |
| 32 |  | 69 | COCOC(C)(c1cc(-c2c[nH]c3ncc(-c4cnn(C)c4)cc23)nc(N)n1)c1ccccc1C (stereo not drawn) [A18, 4-(1-methoxymethoxy-1-o-tolylethyl)-6-[5-(1-methyl-1H-pyrazol-4-yl)-1H-pyrrolo[2,3-b]pyridin-3-yl]pyrimidin-2-ylamine] |
| 3 |  | 210 | CCCC(O)(c1ccncc1)c1cc(-c2c[nH]c3ncc(-c4cnn(C)c4)cc23)nc(N)n1 (stereo not drawn) [A35, 1-{2-amino-6-[5-(1-methyl-1H-pyrazol-4-yl)-1H-pyrrolo[2,3-b]pyridin-3-yl]-pyrimidin-4-yl}-1-pyridin-4-ylbutan-1-ol] |
| 4 |  | 519 | CCC(O)(c1ccncc1)c1cc(-c2c[nH]c3ncc(-c4cnn(CC(=O)N5CCCCC5)c4)cc23)nc(N)n1 (stereo not drawn) [A50, 2-(4-{3-[2-amino-6-(1-hydroxy-1-pyridin-4-ylpropyl)pyrimidin-4-yl]-1H-pyrrolo[2,3-b]pyridin-5-yl}pyrazol-1-yl)-1-piperidin-1-ylethanone] |
| 1.9 |  | 692 | CCC(O)(c1ccncc1)c1cc(-c2c[nH]c3ncc(-c4cn[nH]c4)cc23)nc(N)n1 (stereo not drawn) [A53, 1-{2-amino-6-[5-(1H-pyrazol-4-yl)-1H-pyrrolo[2,3-b]pyridin-3-yl]pyrimidin-4-yl}-1-pyridin-4-ylpropan-1-ol] |
| 150 |  | 240 | Cn1cc(-c2cnc3[nH]cc(-c4cc(C(O)(c5ccccc5)C(F)(F)F)nc(N)n4)c3c2)cn1 (stereo not drawn) [A69, 1-{2-amino-6-[5-(1-methyl-1H-pyrazol-4-yl)-1H-pyrrolo[2,3-b]pyridin-3-yl]-pyrimidin-4-yl}-2,2,2-trifluoro-1-phenylethanol] |
| 13 |  | 110 | Cn1cc(-c2cnc3[nH]cc(-c4cc(C(C)(O)c5cccc(F)c5)nc(N)n4)c3c2)cn1 (stereo not drawn) [A105, 1-{2-amino-6-[5-(1-methyl-1H-pyrazol-4-yl)-1H-pyrrolo[2,3-b]pyridin-3-yl]-pyrimidin-4-yl}-1-(3-fluorophenyl)ethanol] |
| 26 |  | 5.1 | Cn1cc(-c2cnc3[nH]cc(-c4cc(C(C)(O)c5cccc(F)c5)nc(N)n4)c3c2F)cn1 (stereo not drawn) [A106, 1-{2-amino-6-[4-fluoro-5-(1-methyl-1H-pyrazol-4-yl)-1H-pyrrolo-[2,3-b]pyridin-3-yl]pyrimidin-4-yl}-1-(3-fluorophenyl)ethanol] |
| 5.4 |  | 8200 | CCC(O)(c1cc[n+]([O-])cc1)c1cc(-c2c[nH]c3ncc(-c4cnn(C)c4)cc23)nc(N)n1 (stereo not drawn) [A110, 1-{2-amino-6-[5-(1-methyl-1H-pyrazol-4-yl)-1H-pyrrolo[2,3-b]pyridin-3-yl]-pyrimidin-4-yl}-1-(1-oxypyridin-4-yl)propan-1-ol] |
